Results: PMC7853165 (Infectious Diseases and Therapy, 2021)
Where two headings read alike, the source gives them in different places.

Tests used:
[1] = molecular target: T1, angiotensin-converting enzyme 2 (ACE2) (Homo sapiens, UniProt Q9BYF1); test: SPR; type: binding
[2] = molecular target: T1, angiotensin-converting enzyme 2 (ACE2); test: SPR; type: binding; remark: listed apart in the source

T1 sequence (Q9BYF1 18-805): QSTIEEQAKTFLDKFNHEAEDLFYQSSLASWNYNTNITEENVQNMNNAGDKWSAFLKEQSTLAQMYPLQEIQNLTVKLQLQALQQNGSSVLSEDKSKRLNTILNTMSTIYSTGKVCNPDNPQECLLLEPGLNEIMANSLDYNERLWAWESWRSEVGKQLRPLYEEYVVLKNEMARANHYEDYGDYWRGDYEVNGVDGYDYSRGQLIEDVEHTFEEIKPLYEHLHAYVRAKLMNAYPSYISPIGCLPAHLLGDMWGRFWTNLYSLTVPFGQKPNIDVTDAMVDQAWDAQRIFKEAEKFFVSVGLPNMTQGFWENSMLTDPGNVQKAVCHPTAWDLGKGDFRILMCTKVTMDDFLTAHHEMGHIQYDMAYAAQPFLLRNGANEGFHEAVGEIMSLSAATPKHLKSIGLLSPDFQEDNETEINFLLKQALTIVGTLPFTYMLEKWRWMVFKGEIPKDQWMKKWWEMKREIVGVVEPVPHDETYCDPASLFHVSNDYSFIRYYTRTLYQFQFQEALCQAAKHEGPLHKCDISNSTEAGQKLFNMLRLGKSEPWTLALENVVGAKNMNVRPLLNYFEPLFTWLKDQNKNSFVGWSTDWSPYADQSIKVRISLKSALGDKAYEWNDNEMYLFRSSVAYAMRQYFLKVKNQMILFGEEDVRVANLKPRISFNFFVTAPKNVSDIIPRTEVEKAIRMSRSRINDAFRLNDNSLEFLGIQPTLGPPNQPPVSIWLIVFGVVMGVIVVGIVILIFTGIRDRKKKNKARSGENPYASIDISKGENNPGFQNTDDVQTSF

| SMILES | Kd [1] | Kd [2] |
| --- | --- | --- |
| CC1=CC(=O)C(C(C)C)=CC1=O [thymoquinone] | 32.1 µM |  |
| CC(C)C[C@H](N[C@@H](Cc1cncn1Cc1cc(Cl)cc(Cl)c1)C(=O)O)C(=O)O [MLN-4760] |  | 66 µM |
